Experiment [1] deals with A375 cells expressing the MEK1 C121S mutation. As to the kind of experiment: Growth inhibition of A375 melanoma cells transfected with MEK1 C121S mutant. The class given is cell-based. Conditions: for resistance of cells to the inhibitor (in words): A375 cells expressing MEK1 C121S, growth inhibition; for fold greater GI-50 value of MEK1 C121S cells: versus wild-type A375 cells or A375 cells expressing MEK-WT (for AZD6244 also MEK-DD). The text has this: FIGS. 1A and 1B are graphs showing the percent growth inhibition of A375 melanoma cells treated with increasing concentrations (in μM) of either the BRAF inhibitor PLX4720 (FIG. 1A) or the MEK1 inhibitor AZD6244 (FIG. 1B), wherein the A375 cells were either untransfected (A375), transfected with wild-type MEK1 (MEK-WT), transfected with the MEK1 C121S mutant (MEK-C121S) or transfected with a constitutively active MEK variant (MEK-DD).
It has previously been shown that mutations proximal to the C-helix of MEK1 can confer resistance to BRAF inhibition by PLX4032 by upregulating intrinsic MEK1 kinase activity (Emery, C. M. et al., (2009) Proc. Natl. Acad. Sci. USA 106:20411-20416). Therefore, it seemed plausible that the MEK1 C121 mutation, which is also located proximal to the C-helix, might have caused resistance to PLX4032 in the patient's recurrent tumor. To test this, the C121S was introduced mutation into the sequence of wild-type MEK1 and the mutant cDNA was expressed in the A375 melanoma cell line, which harbors a BRAF V600E mutation. To introduce the […] mutation into the wild-type MEK1 sequence, MEK1 site-directed mutagenesis was performed as previously described (Emery, C. M. et al., (2009) Proc. Natl. Acad. Sci. USA […]). Briefly, MEK1 cDNA was amplified by PCR and site-directed mutagenesis was conducted using Quick-Change II (Stratagene) as per the manufacturer's instructions. As controls, the wild-type MEK1 sequence or a constitutively active variant of MEK1, referred to as MEK1-DD, was expressed in the A375 melanoma cells.
To examine the effect of the MEK1 C121S mutation on responsiveness of the A375 melanoma cells to inhibitors, A375 cells (either untransfected cells, or cells transfected with either the wild-type MEK1, the C121S mutant MEK1, or the constitutively active variant MEK1-DD) were treated with increasing amounts of either the BRAF inhibitor PLX4720 (purchased from Symansis, Inc.), which is a compound closely related to PLX4032, or the MEK1 inhibitor AZD6244 (purchased from Selleck Chemical Co., Ltd.). The results are shown in the graphs of FIGS. 1A (PLX4720 treatment) and 1B (AZD6244 treatment).

The test system of experiment [2] is human colon cancer xenograft. As to conditions: cited from earlier work.
In another experiment the test system is MEK. Conditions: cited from earlier work.
Experiment [3] relates to melanoma with BRAF V600E mutations. Conditions: cited from earlier work.
In experiment [4] the test system is metastatic melanoma with BRAF V600E mutation. As to the kind of experiment: Case of a patient with BRAF V600E metastatic melanoma treated with PLX4032 in a clinical trial. The class given is in vivo, human. As to conditions: single patient. As for the experimental part: The patient was a person who was diagnosed with metastatic melanoma in February 2009. […] They were treated with several therapeutic regimens with minimal clinical response. By October 2009, the patient had developed numerous subcutaneous metastatic deposits.
In late February 2010, after 4 months of therapy with PLX4032, the patient rapidly developed new subcutaneous nodules all over their body and PLX4032 was stopped. At this point, they provided written informed consent and a percutaneous core biopsy of a recurrent subcutaneous nodule on the chest was obtained. In order to determine possible mechanisms of resistance to PLX4032 in this tumor, the exons from 138 cancer genes from this sample were sequenced using massively parallel sequencing. The patient continued to have rapid progression of their disease and died on hospice in March 2010.

As for `Cn1cnc2c(F)c(Nc3ccc(Br)cc3Cl)c(C(=O)NOCCO)cc21` [AZD6244], in experiment [1], the “resistance of cells to the inhibitor (in words)” value is “strongly resistant” and the “fold greater GI-50 value of MEK1 C121S cells” value is reported as about 1000 fold.

In the case of `O=C(NOCC1CC1)c1ccc(F)c(F)c1Nc1ccc(I)cc1Cl` [CI-1040], the “effect on xenograft growth (in words)” value in experiment [2] is “reduced human colon cancer xenograft growth”. Also, the “MEK inhibition in cell-based assays (in words)” value in the experiment with MEK is reported as “inhibited MEK”.

Turning to `CCCS(=O)(=O)Nc1ccc(F)c(C(=O)c2c[nH]c3ncc(-c4ccc(Cl)cc4)cc23)c1F` [PLX4032], the “patients with at least 30% tumor response by RECIST criteria” value in experiment [3] (Phase I, 19 of 27 patients, oral) was 70%. Also, in experiment [3] (patients treated with PLX4032), the “average time to relapse (resistance)” value is 9 months. Moreover, in experiment [4], the “duration of therapy until new subcutaneous nodules developed (relapse)” value came to 4 months. Moreover, the “tumor response (in words)” value in experiment [4] (after 15 weeks of therapy) is “near complete regression of all visible tumor nodules”. The “time to visible partial response” value in experiment [4] (from starting PLX4032) is reported as at most 2 weeks.

With `CCCS(=O)(=O)Nc1ccc(F)c(C(=O)c2c[nH]c3ncc(Cl)cc23)c1F` [PLX4720], in experiment [1], the “resistance of cells to the inhibitor (in words)” value was “strongly resistant” and the “fold greater GI-50 value of MEK1 C121S cells” value is reported as 100 fold.

(Values after US10788496B2, “MEK1 mutation conferring resistance to RAF and MEK inhibitors” (Dana-Farber Cancer Institute, Inc., priority 2010, dated 2020).)
